Data published in PMC3065929 (Journal of the American Chemical Society, 2011).

Key:
Type in all cases: biochemical
[1] = target: T1, CoBPO (Corallina officinalis, UniProt Q8LLW7); assay: conversion to products
T1 sequence (Q8LLW7 1-598): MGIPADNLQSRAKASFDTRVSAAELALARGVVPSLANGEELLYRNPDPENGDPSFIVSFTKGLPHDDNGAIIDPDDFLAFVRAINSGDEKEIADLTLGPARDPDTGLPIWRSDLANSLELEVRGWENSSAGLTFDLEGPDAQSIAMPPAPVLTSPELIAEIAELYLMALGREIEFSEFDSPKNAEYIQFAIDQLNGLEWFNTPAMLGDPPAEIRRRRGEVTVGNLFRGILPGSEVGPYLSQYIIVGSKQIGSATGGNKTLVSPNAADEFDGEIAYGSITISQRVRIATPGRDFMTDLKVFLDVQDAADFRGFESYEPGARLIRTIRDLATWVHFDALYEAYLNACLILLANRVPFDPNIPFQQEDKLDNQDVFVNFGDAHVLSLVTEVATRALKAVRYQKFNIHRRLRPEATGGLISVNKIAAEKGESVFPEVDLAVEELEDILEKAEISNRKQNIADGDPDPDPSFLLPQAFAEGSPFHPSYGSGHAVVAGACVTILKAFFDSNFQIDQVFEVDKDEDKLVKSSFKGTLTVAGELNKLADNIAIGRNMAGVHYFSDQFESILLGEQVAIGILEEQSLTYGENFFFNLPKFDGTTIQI

[2] = target: T1, CoBPO; assay: spectrophotometric MCD bromination assay; settings: H2O2, 0.2 M bromide, 30 °C
[3] = target: T2, NapH1 (Streptomyces sp. CNQ-525, UniProt A7KH27); assay: HPLC assay of chlorination-cyclization; settings: H2O2, chloride, pH 6; estimated, below detection limit of the assay
T2 sequence (A7KH27 42-527): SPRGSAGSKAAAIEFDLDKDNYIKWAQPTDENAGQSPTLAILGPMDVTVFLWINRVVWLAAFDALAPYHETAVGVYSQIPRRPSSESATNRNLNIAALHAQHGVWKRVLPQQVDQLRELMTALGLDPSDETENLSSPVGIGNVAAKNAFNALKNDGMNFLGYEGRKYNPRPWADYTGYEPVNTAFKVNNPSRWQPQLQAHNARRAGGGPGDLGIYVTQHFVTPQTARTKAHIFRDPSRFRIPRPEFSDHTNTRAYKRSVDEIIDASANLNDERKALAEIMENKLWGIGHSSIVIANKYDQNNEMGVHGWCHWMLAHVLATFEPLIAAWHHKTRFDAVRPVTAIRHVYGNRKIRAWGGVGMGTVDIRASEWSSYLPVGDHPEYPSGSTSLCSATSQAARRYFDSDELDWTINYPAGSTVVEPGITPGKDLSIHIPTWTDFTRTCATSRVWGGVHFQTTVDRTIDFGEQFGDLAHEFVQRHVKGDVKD

CC(C)=CCC1=C(O)C(=O)c2ccccc2C1=O [lapachol, 4-hydroxy-3-(3-methylbut-2-enyl)naphthalene-1,2-dione] was tested, and the conversion to products [1] was “CoBPO catalyzed the complete conversion of lapachol into numerous products”.
In the case of CC1(C)CC(=O)C(Cl)C(=O)C1 [monochlorodimedone], the “spectrophotometric MCD bromination assay (290 nm)” value [2] is reported as “Corallina officinalis V-BPO (CoBPO) (below)”.
CC(C)=CCC/C(C)=C/C[C@@]1(O)C(=O)c2cc(O)c(C)c(O)c2C(=O)[C@]1(Cl)CC=C(C)C [compound 3, SF2415B1] was tested, and the Km [3] was < 1 µM.
